What was measured:
[1] = tested on: CCRF-CEM; assay: NCI SRB cytotoxicity, leukemia CCRF-CEM; type: cell-based; details: Homo sapiens, 48 h exposure
Description: (§1) The pyrazolochalcones (7e, 8e, 10e, 11e, 12e, 13e and 8f) have been tested against fifty nine human tumor cell lines derived from nine cancer types (leukemia, non-small cell lung cancer, colon cancer, CNS cancer, melanoma, ovarian cancer, renal cancer, prostate cancer and breast cancer) as per the NCI protocol. For each compound, dose response curves for individual cell lines have been measured at a minimum of five concentrations at 10 fold dilutions. A protocol of 48 h continuous drug exposure has been used, and a sulforhodamine B (SRB) protein assay has been used to estimate cell viability or growth. The concentration for 50% cell growth inhibition (GI50), 50% cell death (LC50, 50% growth) and total cell growth inhibition (TGI, 0% growth) values were tabulated (Table-1). DMSO was used as control to calculate the values of GI50, LC50 and TGI. The compounds 7e, 8e, 10e, 11e, 12e, 13e and 8f has been evaluated for their in vitro cytotoxicity in […] cell lines from nine human cancer types of leukemia (K-562, SR), non-small cell lung (Hop-62, NCI-H226, NCI-H522), colon (HCT-116, HCT-15, HCC-2998), CNS (SF-539), melanoma (SK-MEL-5, UACC-62, M14), ovarian (IGROV1), renal (A498), prostate (PC3) and breast (BT-549, MDA-MB-435, HS578T) origin. The results are expressed as percent of cell growth determined relative to that of untreated control cells (Table 2).

[2] = tested on: HL-60(TB); assay: NCI SRB cytotoxicity, leukemia HL-60(TB); type: cell-based; details: Homo sapiens, 48 h exposure
Description: as §1

[3] = tested on: MOLT-4; assay: NCI SRB cytotoxicity, leukemia MOLT-4; type: cell-based; details: Homo sapiens, 48 h exposure
Description: as §1

[4] = tested on: A549/ATCC; assay: NCI SRB cytotoxicity, non-small cell lung A549/ATCC; type: cell-based; details: Homo sapiens, 48 h exposure
Description: as §1

[5] = tested on: NCI-H226; assay: NCI SRB cytotoxicity, non-small cell lung NCI-H226; type: cell-based; details: Homo sapiens, 48 h exposure
Description: as §1

[6] = tested on: NCIH322M; assay: NCI SRB cytotoxicity, non-small cell lung NCIH322M; type: cell-based; details: Homo sapiens, NCI-H322M, 48 h exposure
Description: as §1

[7] = tested on: NCI-H522; assay: NCI SRB cytotoxicity, non-small cell lung NCI-H522; type: cell-based; details: Homo sapiens, 48 h exposure
Description: as §1

[8] = tested on: COLO-205; assay: NCI SRB cytotoxicity, colon COLO-205; type: cell-based; details: Homo sapiens, 48 h exposure
Description: as §1

[9] = tested on: HCT-116; assay: NCI SRB cytotoxicity, colon HCT-116; type: cell-based; details: Homo sapiens, 48 h exposure
Description: as §1

[10] = tested on: HT29; assay: NCI SRB cytotoxicity, colon HT29; type: cell-based; details: Homo sapiens, HT-29, 48 h exposure
Description: as §1

[11] = tested on: SW-620; assay: NCI SRB cytotoxicity, colon SW-620; type: cell-based; details: Homo sapiens, 48 h exposure
Description: as §1

[12] = tested on: SF-268; assay: NCI SRB cytotoxicity, CNS SF-268; type: cell-based; details: Homo sapiens, 48 h exposure
Description: as §1

[13] = tested on: SF-539; assay: NCI SRB cytotoxicity, CNS SF-539; type: cell-based; details: Homo sapiens, 48 h exposure
Description: as §1

[14] = tested on: SNB-19; assay: NCI SRB cytotoxicity, CNS SNB-19; type: cell-based; details: Homo sapiens, 48 h exposure
Description: as §1

[15] = tested on: LOX IMVI; assay: NCI SRB cytotoxicity, melanoma LOX IMVI; type: cell-based; details: Homo sapiens, 48 h exposure
Description: as §1

[16] = tested on: MALME-3M; assay: NCI SRB cytotoxicity, melanoma MALME-3M; type: cell-based; details: Homo sapiens, 48 h exposure
Description: as §1

[17] = tested on: M14; assay: NCI SRB cytotoxicity, melanoma M14; type: cell-based; details: Homo sapiens, 48 h exposure
Description: as §1

[18] = tested on: SK-MEL-28; assay: NCI SRB cytotoxicity, melanoma SK-MEL-28; type: cell-based; details: Homo sapiens, 48 h exposure
Description: as §1

[19] = tested on: SK-MEL-5; assay: NCI SRB cytotoxicity, melanoma SK-MEL-5; type: cell-based; details: Homo sapiens, 48 h exposure
Description: as §1

[20] = tested on: UACC-62; assay: NCI SRB cytotoxicity, melanoma UACC-62; type: cell-based; details: Homo sapiens, 48 h exposure
Description: as §1

[21] = tested on: OVCAR-3; assay: NCI SRB cytotoxicity, ovarian OVCAR-3; type: cell-based; details: Homo sapiens, 48 h exposure
Description: as §1

[22] = tested on: NCI/ADR-RES; assay: NCI SRB cytotoxicity, ovarian NCI/ADR-RES; type: cell-based; details: Homo sapiens, 48 h exposure
Description: as §1

[23] = tested on: A498; assay: NCI SRB cytotoxicity, renal A498; type: cell-based; details: Homo sapiens, 48 h exposure
Description: as §1

[24] = tested on: ACHN; assay: NCI SRB cytotoxicity, renal ACHN; type: cell-based; details: Homo sapiens, 48 h exposure
Description: as §1

[25] = tested on: CAKI-1; assay: NCI SRB cytotoxicity, renal CAKI-1; type: cell-based; details: Homo sapiens, 48 h exposure
Description: as §1

[26] = tested on: RXF 393; assay: NCI SRB cytotoxicity, renal RXF 393; type: cell-based; details: Homo sapiens, 48 h exposure
Description: as §1

[27] = tested on: SN12C; assay: NCI SRB cytotoxicity, renal SN12C; type: cell-based; details: Homo sapiens, 48 h exposure
Description: as §1

[28] = tested on: TK-10; assay: NCI SRB cytotoxicity, renal TK-10; type: cell-based; details: Homo sapiens, 48 h exposure
Description: as §1

[29] = tested on: UO-31; assay: NCI SRB cytotoxicity, renal UO-31; type: cell-based; details: Homo sapiens, 48 h exposure
Description: as §1

[30] = tested on: PC-3; assay: NCI SRB cytotoxicity, prostate PC-3; type: cell-based; details: Homo sapiens, 48 h exposure
Description: as §1

[31] = tested on: BT-549; assay: NCI SRB cytotoxicity, breast BT-549; type: cell-based; details: Homo sapiens, 48 h exposure
Description: as §1

[32] = tested on: T-47D; assay: NCI SRB cytotoxicity, breast T-47D; type: cell-based; details: Homo sapiens, T47D, 48 h exposure
Description: as §1

[33] = tested on: Leukemia; assay: NCI SRB cytotoxicity, leukemia panel average; type: cell-based, human; details: average of cell lines
Description: as §1
(§2) Each cancer type represents the average of six to eight different cancer cell lines.

[34] = tested on: Colon; assay: NCI SRB cytotoxicity, colon panel average; type: cell-based, human; details: average of cell lines
Description: as §1, §2

[35] = tested on: CNS; assay: NCI SRB cytotoxicity, CNS panel average; type: cell-based, human; details: average of cell lines
Description: as §1, §2

[36] = tested on: Melanoma; assay: NCI SRB cytotoxicity, melanoma panel average; type: cell-based, human; details: average of cell lines
Description: as §1, §2

[37] = tested on: Ovarian; assay: NCI SRB cytotoxicity, ovarian panel average; type: cell-based, human; details: average of cell lines
Description: as §1, §2

[38] = tested on: Prostate; assay: NCI SRB cytotoxicity, prostate panel average; type: cell-based, human; details: average of cell lines
Description: as §1, §2

[39] = tested on: Breast; assay: NCI SRB cytotoxicity, breast panel average; type: cell-based, human; details: average of cell lines
Description: as §1, §2

[40] = Homo sapiens, read-out: Log10 GI50 (concentration in mol/L causing 50% growth inhibition) (converted)
[41] = Homo sapiens, read-out: Log10 LC50 (concentration in mol/L causing 50% cell death) (converted)

## COc1cc(-c2cc(/C=C/C(=O)c3ccc(Cl)c(Cl)c3)[nH]n2)cc(OC)c1OC [12e, (E)-1-(3,4-dichlorophenyl)-3-(3-(3,4,5-trimethoxyphenyl)-1H-pyrazol-5-yl)prop-2-en-1-one]
[1]
  GI50: 2.15 µM
[2]
  GI50: 7.18 µM
[3]
  GI50: 4.38 µM
[4]
  GI50: 18.7 µM
[5]
  GI50: 18.6 µM
[6]
  GI50: 14.5 µM
[7]
  GI50: 1.33 µM
[8]
  GI50: 1.26 µM
[9]
  GI50: 2.95 µM
[10]
  GI50: 1.15 µM
[11]
  GI50: 8.63 µM
[12]
  GI50: 13.7 µM
[13]
  GI50: 4.31 µM
[14]
  GI50: 9.83 µM
[15]
  GI50: 3.39 µM
[16]
  GI50: 29.2 µM
[17]
  GI50: 18.2 µM
[18]
  GI50: 18.5 µM
[19]
  GI50: 13.4 µM
[20]
  GI50: 18.8 µM
[21]
  GI50: 6.99 µM
[22]
  GI50: 10.6 µM
[23]
  GI50: 5.89 µM
[24]
  GI50: 21.4 µM
[25]
  GI50: 16.9 µM
[26]
  GI50: 2.7 µM
[27]
  GI50: 13.7 µM
[28]
  GI50: 8.34 µM
[29]
  GI50: 5.73 µM
[30]
  GI50: 5.95 µM
[31]
  GI50: 8.4 µM
[32]
  GI50: 1.66 µM
[33]; [40]
  GI50: 2.09 µM
[33]; [41]
  CC50: 0.0001 mol/L
[33]
  Log10 TGI (concentration in mol/L causing total growth inhibition (0% growth)): −4.61 mol/L
[34]; [40]
  GI50: 4.79 µM
[34]; [41]
  LC50: 0.0001 mol/L
[34]
  Log10 TGI (concentration in mol/L causing total growth inhibition): −4.34 mol/L
[35]; [40]
  GI50: 8.51 µM
[35]; [41]
  LC50: 87.1 µM
[35]
  Log10 TGI (concentration in mol/L causing total growth inhibition (0% growth)): −4.25 mol/L
[36]; [40]
  GI50: 13.2 µM
[36]; [41]
  LC50: 95.5 µM
[36]
  Log10 TGI (concentration in mol/L causing total growth inhibition): −4.21 mol/L
[37]; [40]
  GI50: 10 µM
[37]; [41]
  CC50: 95.5 µM
[37]
  Log10 TGI (concentration in mol/L causing total growth inhibition (0% growth)): −4.27 mol/L
[38]; [40]
  GI50: 5.89 µM
[38]; [41]
  CC50: 0.0001 mol/L
[38]
  Log10 TGI (concentration in mol/L causing total growth inhibition (0% growth)): −4.00 mol/L
[39]; [40]
  GI50: 4.47 µM
[39]; [41]
  CC50: 0.0001 mol/L
[39]
  Log10 TGI (concentration in mol/L causing total growth inhibition (0% growth)): −4.41 mol/L

From patent publication US9604933B2, “Pyrazolochalcones as potential anticancer agents” (COUNCIL OF SCIENTIFIC AND INDUSTRIAL RESEARCH, priority 2013, dated 2017)
